Target: Tsrp1
Experiment: localized surface plasmon resonance, Tsrp1 immobilised on NTA chip, one-to-one model
Assay type: binding, Rhodococcus ruber
Details: HEPES-buffered saline pH 7.4; c-di-GMP 62.5-500 μM; unit printed as mM in b36 but μM in abstract; read-out: dissociation constant

Kd: 0.064 ± 0.00684 mM
Structure (SMILES): Nc1nc2c(ncn2[C@@H]2O[C@@H]3COP(=O)(O)O[C@H]4[C@@H](O)[C@H](n5cnc6c(=O)[nH]c(N)nc65)O[C@@H]4COP(=O)(O)O[C@H]3[C@H]2O)c(=O)[nH]1 [c-di-GMP]

— publication PMC11985408, “Tsrp1 Is a Novel Cyclic Diguanosine Monophosphate Effector that Plays a Role in the Organic-Solvent Tolerance of Rhodococcus ruber” (Journal of Microbiology and Biotechnology, 2025)
